Laboratory results published in patent US20110294728A1, “Antiviral Polypeptides” (priority 2008, published 2011).
Read-outs that look alike come from different tables or passages of the source. Where no end group is shown, it is not given here.

How the values were obtained:
[1] = system: uninfected PHA-P-activated PBMC; assay: Cytotoxicity, MTT assay in uninfected PBMC; format: cell-based
Method: The anti-HIV activities of the peptides were assayed according to the methods described in Roisin et al. (2004). Phytohemagglutinin-P(PHA-P)-activated peripheral blood mononuclear cells (PBMC) treated by increasing concentrations of peptide (from 100 to 0.1 nM), one hour later, were infected with hundred 50% tissue culture infectious doses (TCID50) per 100,000 cells of the HIV-1-LAI strain (Barre-Sinoussi et al., 1983). This virus was amplified in vitro on PHA-P-activated PBMC. Viral stock was titrated using PHA-P-activated PBMC, and 50% TCID50 were calculated using Kärber's formula (Kärber, 1931). Samples were maintained throughout the culture, and cell supernatants were collected at day 7 post-infection and stored at −20° C. Viral replication was measured by quantifying reverse transcriptase (RT) activity in cell culture supernatants. In parallel, cytotoxicity of the compounds was evaluated in uninfected PHA-P-activated PBMC by colorimetric 3-(4-5 dimethylthiazol-2-yl)2,5diphenyl tetrazolium bromite (MTT) assay on day 7 (as described in Mossmann, 1983). Experiments were performed in triplicate and repeated with another blood donor. […]

HeLa cells = assay: Cellular uptake of FITC-labelled peptide, fluorescence microscopy; format: cell-based; settings: for entry of free peptide into cells: peptide alone, without Pep-1
Method: HeLa cells were cultured in Dulbecco's modified Eagle's medium (DMEM) supplemented with 10% fetal calf serum at 37° C. in a humidified atmosphere containing 5% CO2.). H9 cell lines (ATCC number: HTB-176) were stably transfected with pNL4.3 V−R+plasmid (AIDS Research Reference Reagent Program, National Institutes of Health (NIH), USA) and therefore expressed in a constitutive manner all HIV-1 proteins but Env encoded proteins. They were cultured in RPMI-1640 medium supplemented with 2 mM glutamine, 10% (w/v) foetal calf serum (FCS), 1% antibiotics (streptomycin […], penicillin, 10 000 IU/ml), as well as G418 1 mg/ml. Cells were grown on glass coverslips to 75% confluency, then transfected with pcDNA3-p66RT plasmid (this plasmid contains the 66 subunit of HIV-1 Reverse Transcriptase cloned in pcDNA3.1 (+) vector (Invitrogen, USA), using HindIII and BamHI restriction site) using Lipofectamine 2000 reagent according to manufacturer' instructions (Invitrogen). Hela cells were subsequently cultured for 32 h, before incubation with FITC-PAW or FITC-PAW/Pep-1 (complex obtained at a molar ratio 1/10) for 1 h. Coverslips were extensively rinsed with PBS and cells were fixed in 4% paraformaldehyde for […] and permeabilized in 0.2% Triton. After saturation in PBS supplemented with bovine serum albumine 1% for 1 h, cells were incubated overnight with monoclonal 8C4 anti-HIV-1 RT antibody (AIDS Research Reference Reagent Program, NIH) (diluted 1:100 in PBS-BSA 1%), followed by Alexa-555 anti-mouse (Molecular Probes).
Immunofluorescence detection of HIV-1 RT and FITC-PAW was performed by epifluorescence microscopy using a PL APO 1.4 oil PH3 objective on a LEICA DMRA 1999 microscope. 3D reconstitution of the 20 frames realized from z stacking was performed using Imaris 6.0 software.
Cells were grown on acid-treated glass coverslips to 60% confluence. Once rinsed with PBS, cells were overlaid with preformed complexes and incubated for 40 minutes at 37° C. Cells were then rinsed twice with PBS and fixed […] at Room Temperature) (RT° in Paraformaldehyde 4%, and washed three times in PBS+2% BSA. They were then permeabilised by incubation 10 min RT° in PBS+0.5% Triton X-100, washed again 3 times in PBS+2% BSA. After blocking 20 min in the same solution, the coverslips were placed in a humid chamber, overlaid with 75 μl of primary antibody against Integrase, and incubated for 2 h at 37° C. Coverslips were then rinced once with PBS and incubated with 75 μl of anti rabbit antibody diluted 1/10000 in PBS. After immobilisation on the cover using Prolong Gold antifade reagent, cellular localization of Integrase as well as FITC-labelled peptides was monitored by fluorescence microscopy, using a PL APO 1.4 oil PH3 objective on a LEICA DMRA 1999 microscope. […]

HIV-1 RT [2] = target: T1, HIV-1 RT (Human immunodeficiency virus type 1 group M subtype B, UniProt P03366); assay: RT dissociation kinetics with bis-ANS, stopped flow; settings: read-out: dissociation rate constant kdis of RT
T1 construct: The heterodimeric p66/p51 RT was eluted with an imidazole gradient; p66 and p51 derived from p66 by proteolytic cleavage of the C-terminal RNAse H domain; made in house; host or cells: E. coli (M15 for the His-tagged subunits)
Method: Dissociation kinetics of HIV-1 RT were monitored by using 4,4′-Bis(1-anilinonaphthalene 8-sulfonate (bis-ANS) as extrinsic probe. Changes in bis-ANS fluorescence provide a good signal to probe variation in the exposure of the hydrophobic regions associated to RT dissociation in a time-dependent manner. 0.5 μM of RT was dissociated in presence of 0.8 μM of bis-ANS, by adding 10% acetonitrile in the absence or in the presence of 10 μM PAW. Kinetics of dissociation were monitored by following fluorescence resonance energy transfer between tryptophan residues of RT and bis-ANS. Excitation of RT-Trp residues was performed at 290 nm and the increase of bis-ANS fluorescence emission at 490 nm was detected through a 420 nm cut-off filter. Data acquisition and analysis were performed using KinetAsyst 3 software (Hi-Tech Scientific, Salisbury, England-UK) and traces were fitted according to a single exponential equation.

heterodimeric RT = target: T2, heterodimeric RT (Human immunodeficiency virus type 1 group M subtype B, UniProt P03366); assay: Steady-state fluorescence titration of FITC-PAW with RT; set-up: species or system HIV-1; settings: 200 nM FITC-PAW titrated with RT; read-out: dissociation constant (Kd), binding to heterodimeric RT
T2 construct: The heterodimeric p66/p51 RT was eluted with an imidazole gradient; p66 and p51 derived from p66 by proteolytic cleavage of the C-terminal RNAse H domain; made in house; host or cells: E. coli (M15 for the His-tagged subunits)
Method: (§1) Fluorescence experiments were performed in buffer containing 50 mM Tris-HCl, pH 8.0, 50 mM KCl, 10 mM MgCl2 and 1 mM DTT, at 25° C., using a SPEX-PTI spectrofluorimeter in a 1 cm path-length quartz cuvette, with a band-pass of 2 nm for excitation and emission, respectively. Excitation was performed at 492 nm and emission spectra were recorded from 500 to 600 nm. According fluorescence experiments, a fixed concentration of FAM-labelled (19/36) p/t (50 nM) or of FITC-PAW (200 nM) was titrated with increasing protein concentrations from 5 nM to 1 μM. Data were fitted as described in Agopian et al. (2007) and Rittinger et al. (1995), using a quadratic equation (GraFit, Erithacus Software).

HIV-1 integrase [3] = target: T3, HIV-1 integrase (Human immunodeficiency virus type 1 group M subtype B, UniProt P04585); assay: IN 3′-processing activity, gel-electrophoresis procedure; format: biochemical; settings: read-out: IC50 3′-proc
T3 construct: Integrase is a 32 kDA viral protein that is biologically active under a multimeric form
Method: In order to verify the influence of the fluorescent probe attached to PAW on the peptide-integrase interaction, a standard gel-electrophoresis procedure (as described in Smolov et al., 2006) was carried out to examine the IN 3′-processing activity as a function of either unlabeled or fluorescein-labeled PAW concentration.

RT:p/t = target: T4, RT:p/t (Human immunodeficiency virus type 1 group M subtype B, UniProt P03366); assay: Steady-state fluorescence titration, PAW binding to RT:p/t; set-up: species or system HIV-1
T4 construct: The heterodimeric p66/p51 RT was eluted with an imidazole gradient; p66 and p51 derived from p66 by proteolytic cleavage of the C-terminal RNAse H domain; made in house; host or cells: E. coli (M15 for the His-tagged subunits)
Method: as §1

HIV-1 p51 = target: T5, HIV-1 p51 (Human immunodeficiency virus type 1 group M subtype B, UniProt P03366); assay: Size exclusion chromatography of p51 dimerization; settings: p51 3.5 μM, FITC-labelled PAW 20 μM, 1 h
T5 construct: His; made in house; host or cells: E. coli M15
Method: Chromatography was performed using one (Phenomenex 53000) or two HPLC columns in series (Phenomenex 53000 followed by Phenomenex 52000; both 7.5 mm×300 mm). Samples containing 3 to 10 μM of RT or p51 were applied onto one or two HLPC columns and eluted with 200 mM potassium phosphate (pH: 7.0) at a flow rate of 0.5 ml·min^−1 (5).

HIV-1 RT [4] = target: T1, HIV-1 RT; assay: biochemical
Method: RNA-dependent-DNA RT-polymerase activity was measured in a standard reaction assay using poly(rA)-(dT)15 as template/primer as described in Restle et al. (1990). Ten microliters of reverse transcriptase (RT) at 20 nM was incubated at 37° C. for 30 min with 20 μL of reaction buffer (50 mM Tris, pH 8.0, 80 mM KCl, 6 mM MgCl2, 5 mM DTT, 0.15 μM poly(rA-dT), 15 μM dTTP, 0.3 μCi 3H-dTTP). For peptide evaluation, HIV-1 RT was incubated with increasing concentrations of peptide inhibitors for […], and polymerase reaction was initiated by adding reaction buffer. Reactions were stopped by precipitation of nucleic acids with 5 ml of 20% trichloroacetic acid (TCA) solution for 2 h on ice, then filtered using a multiwell-sample collector (Millipore), and washed with 5% TCA solution. Filters were dried at 55° C. for 30 min and radionucleotide incorporation was determined by liquid scintillation spectrometry.
A series of peptides have been derived from Pep-A sequence (SEQ ID NO: 28), which is derived from HIV-1 reverse transcriptase. First, P1 peptide (SEQ ID NO: 1) was obtained by removing the N-terminal arginine of Pep-A. Then, additional peptides were generated by performing an alanine scan on P1. P1-derived peptides were evaluated using a standard polymerase RT assay. Reported data correspond to the mean of three separate experiments.

HIV-1 RT [5] = target: T6, HIV-1 RT (Human immunodeficiency virus type 1 group M subtype B, UniProt P12497); assay: RT pull-down with peptide-CNBr Sepharose beads, H9 cell lysates; format: binding; settings: Western blotting
T6 construct: asymmetric heterodimer that consists of two subunits, p66 and p51; expressed in transfected cells; host or cells: H9 cells (ATCC HTB-176) stably transfected with pNL4.3 V-R+
Method: For RT pull down experiments, PAW (SEQ ID NO: 18) was incubated with 500 μl of activated CNBr-activated Sepharose 4B beads at 4° C. overnight. After centrifugation, supernatants were removed and the beads were incubated with Glycine pH.8.0 for 2 hrs at 4° C. with gentle stirring. The beads were then washed with 0.1 M sodium acetate buffer (pH 4.0), then 0.5 M Bicarbonate buffer, and finally in PBS, three times each. The peptide bound to the beads were then saturated for 30 min in PBS/BSA 0.1% and then incubated for 1 h at 4° C. with equal amounts of H9 cells lysed for […] on ice in Lysis buffer (Tris 20 mM, pH 7.2, NaCl 400 mM, EDTA 1 mM, DTT 1 mM, Protease inhibitors EDTA free) and sonicated 2×5 sec. at 20%. Beads were washed with Lysis buffer then twice with PBS and the bound proteins were finally separated on 15% SDS-PAGE gel and analyzed by Western Blotting using monoclonal 8C4 anti-HIV-1 RT antibody.

HIV-1 integrase [6] = target: T7, HIV-1 integrase (Human immunodeficiency virus type 1 group M subtype B, UniProt P12497); assay: Integrase pull-down with CNBr Sepharose beads; format: binding; settings: H9 or HeLa HA-IN cell lysates, western blotting
T7 construct: expressed in transfected cells; host or cells: H9 cells with pNL4.3 V-R+; HeLa cells stably expressing HA-tagged IN
Method: Peptides were resuspended in buffer A (1 mg/ml), sonicated 4 min, and incubated with 500 μl (gel volume) of activated CNBr-activated Sepharose 4B sepharose© beads at 4° C. overnight. After centrifugation, supernatants were removed and the beads were incubated with Glycine pH.8 for 2 hours at 4° C. with gentle stirring. The sedimented Sepharose beads were then washed in 0.1 M Sodium Acetate buffer (pH 4), 0.5 M Bicarbonate buffer, and finally in PBS, three times each. The peptides bound to the beads were then saturated for 30 minutes in PBS BSA 0.1% and then incubated for 1 h at 4° C. with equal amounts of cell lysate (H9 or Hela-IN) prealably lysed for 30 min on ice in Lysis buffer (Tris 20 mM, pH 7.2, NaCl 400 mM, EDTA 1 mM, DTT 1 mM, Protease inhibitors EDTA free (Roche Diagnostics) and sonicated twice for 5 sec. at 20%. Beads were washed once in Lysis buffer, and twice in PBS. They were finally resuspended in Laemli blue, migrated on 15% SDS-PAGE gels and analysed by Western Blotting.

GTKWLTEWIPLTAEAE-NH2 [PAW]
toxic effect [1]: without any toxic effect | entry of free peptide into cells (HeLa cells): not able to enter cells alone | koff (HIV-1 RT [2]): 1.42 ± 0.007 s⁻¹

GTKWLTEWIPLTAEAEC-FITC [PAW-FITC]
Kd (heterodimeric RT): 33 ± 10 nM | IC50 (HIV-1 integrase [3]): 10000 nM | lower Kd of labelled FITC-PAW over unlabelled peptide (RT:p/t): 5.6 fold | Kd (RT:p/t; FITC-PAW fluorescence quenching, read-out: Kd, FITC-PAW binding to RT first incubated with DNA/DNA p/t): 7.1 ± 2.8 nM | increase of affinity for RT in the presence of p/t (RT:p/t; relative to RT without p/t): 5 fold | p51 dimeric and associated to PAW (HIV-1 p51): 4.6% | time to enter cells (HeLa cells; complexed with Pep-1 at 1/10 molar ratio): less than 1 h | entry of free peptide into cells (HeLa cells): poorly enters | Ki (HIV-1 RT [4]; Dixon plot, mean of three separate experiments, read-out: Ki (μM), inhibition of polymerase activity of HIV-1 RT): 2.7 ± 0.7 µM | reduction of efficiency (higher Ki) relative to PAW (HIV-1 RT [4]; relative to PAW): 3.8 fold

GTKALTAVIPLTEEAE [Peptide P8]
entry of free peptide into cells (HeLa cells): not able to enter cells alone | Ki (HIV-1 RT [4]): 57 ± 19 µM | reduction of efficiency of the peptide in comparison to P1 (HIV-1 RT [4]; relative to P1): 8 fold | stable complex with RT, retention of RT on beads (HIV-1 RT [5]): no RT was associated

Pep-7: decapeptide (SEQ ID NO: 32) mimicking p66/p51 interface that prevents reverse transcriptase-dimerization (KETWETWWTE; Pep-7 ; described in Morris et al., 1999, JBC, 274, 24941-24946)
interaction with IN in pull-down (HIV-1 integrase [6]): does not bind IN
